Measurements: US8748480B2, “Methods for treating opioid tolerance” (priority 2005, dated 2014)

Assays:
[1] = molecular target: T1, Gβ1γ2 Lys57Ala (Rattus norvegicus, UniProt P54311, K57A); assay: Phage ELISA, b-βγ mutant Lys57Ala; format: binding; settings: Gβ1γ2 Lys57Ala; phage displaying SIGK peptide
T1 construct: made in house; host or cells: Sf9 insect cells (baculovirus)
Excerpt: (§1) Wild-type Gβ1 and Gβ1 mutants were made in the baculovirus vector PDW464 which encodes a biotinylation site at a lysine upstream of the amino terminus of Gβ1 (Goubaeva, et al. (2003) supra). Mutants were generated by overlap extension PCR using standard protocols. The wild-type and mutant Gβ1 constructs consisted of a 20 amino acid biotin acceptor peptide (BAP) sequence fused in-frame with the amino-terminus of rat Gβ1 subunit. When coexpressed with biotin holoenzyme synthetase (BirA) in Sf9 cells, the Gβ1 subunit becomes covalently biotinylated in vivo at the Specific lysine acceptor residue in the BAP. Using this approach, 1-2 mg protein of purified protein can be obtained per liter of Sf9 insect cells. As 45 ng of protein is used in the phage ELISA assay, a single purification is sufficient for 10,000 to 30,000 binding assays.
(§2) Phage ELISA assays used to assess peptide binding to wild-type and mutant b-βγ were performed according to standard methods (Smrcka and Scott (2002) Methods Enzymol. 344:557-76). Briefly, 1 μg streptavidin was immobilized in the well of a […] overnight at 4° C. The wells were blocked with 100 μL of 2% bovine serum albumin (BSA) in Tris-buffered saline (TBS) for 1 hour at 4° C. followed by three washes of 1×TBS/0.5% TWEEN®. Forty μL of 25 nM bGβ1γ2 in TBS/0.5% TWEEN® was added to each well and incubated at 4° C. for 1.5 hour. The wells were washed, followed by the addition of 1×10^6 to 1×10^10 phage particles and incubated at 4° C. for 3 hours. The wells were then washed six times with TBS/0.5% TWEEN® followed by addition of 40 μL of 1:5000 dilution of anti-M13 antibody (Pharmacia, Uppsala, Sweden) and incubated at room temperature for 1 hour. The wells were washed, followed by the addition of 40 μL of (2,2′-Azino-bis(3-ethylbenzthiazoline)-6-sulfonic acid (ABTS) and the colorimetric reaction was monitored at 405 nm. Non-specific binding was subtracted for each reading.
(§3) Both assays were then carried out with Gβ1γ2 heterodimers containing mutations in the Gβ1 subunit.
(§4) The nine peptides were selected to represent the different consensus groups of peptides previously identified (See Scott et al. (2001) supra; Table 9) and to compare binding characteristics within and between consensus groups. […] As disclosed herein, the binding signal obtained in the ELISA assay was correlated to a loss in affinity by comparing the results to behavior of the peptide in a solution based assay. […] For the purposes of present disclosure, any substitution that decreased the binding to less than 20% of the wild-type binding was considered to be a critical binding contact for that peptide.

[2] = molecular target: T2, Gβ1γ2 His62Ala (Rattus norvegicus, UniProt P54311, H62A); assay: Phage ELISA, b-βγ mutant His62Ala; format: binding; settings: phage displaying SIGK peptide
T2 construct: made in house; host or cells: Sf9 insect cells (baculovirus)
Excerpt: as §1
(§5) Phage ELISA assays used to assess peptide binding to wild-type and mutant b-βγ were performed according to standard methods (Smrcka and Scott (2002) Methods Enzymol. 344:557-76). Briefly, 1 μg streptavidin was immobilized in the well of a 96-six well plate overnight at 4° C. […] The wells were washed, followed by the addition of 40 μL of (2,2′-Azino-bis(3-ethylbenzthiazoline)-6-sulfonic acid (ABTS) and the colorimetric reaction was monitored at 405 nm. Non-specific binding was subtracted for each reading. […]

[3] = molecular target: T3, Gβ1γ2 Trp99Ala (Rattus norvegicus, UniProt P54311, W99A); assay: Phage ELISA, b-βγ mutant Trp99Ala; format: binding
T3 construct: made in house; host or cells: Sf9 insect cells (baculovirus)
Excerpt: as §1, §2, §3, §4

[4] = molecular target: T4, Gβ1γ2 Met101Ala (Rattus norvegicus, UniProt P54311, M101A); assay: Phage ELISA, b-βγ mutant Met101Ala; format: binding; settings: Gβ1γ2 Met101Ala; phage displaying SIGK peptide
T4 construct: made in house; host or cells: Sf9 insect cells (baculovirus)
Excerpt: as §1, §2, §3, §4

[5] = molecular target: T5, Gβ1γ2 Leu117Ala (Rattus norvegicus, UniProt P54311, L117A); assay: Phage ELISA, b-βγ mutant Leu117Ala; format: binding; settings: Gβ1γ2 Leu117Ala; phage displaying SIGK peptide
T5 construct: made in house; host or cells: Sf9 insect cells (baculovirus)
Excerpt: as §1, §2, §3, §4

[6] = molecular target: T6, Gβ1γ2 Tyr145Ala (Rattus norvegicus, UniProt P54311, Y145A); assay: Phage ELISA, b-βγ mutant Tyr145Ala; format: binding; settings: Gβ1γ2 Tyr145Ala; phage displaying SIGK peptide
T6 construct: made in house; host or cells: Sf9 insect cells (baculovirus)
Excerpt: as §1, §2, §3, §4

[7] = molecular target: T7, Gβ1γ2 Met188Ala (Rattus norvegicus, UniProt P54311, M188A); assay: Phage ELISA, b-βγ mutant Met188Ala; format: binding; settings: Gβ1γ2 Met188Ala; phage displaying SIGK peptide
T7 construct: made in house; host or cells: Sf9 insect cells (baculovirus)
Excerpt: as §1, §2, §3, §4

[8] = molecular target: T8, Gβ1γ2 Asp246Ser (Rattus norvegicus, UniProt P54311, D246S); assay: Phage ELISA, b-βγ mutant Asp246Ser; format: binding; settings: Gβ1γ2 Asp246Ser; phage displaying SIGK peptide
T8 construct: made in house; host or cells: Sf9 insect cells (baculovirus)
Excerpt: as §1, §2, §3, §4

[9] = molecular target: T9, Gβ1γ2 Phe292Ala (Rattus norvegicus, UniProt P54311, F292A); assay: Phage ELISA, b-βγ mutant Phe292Ala; format: binding; settings: phage displaying SIGK peptide
T9 construct: made in house; host or cells: Sf9 insect cells (baculovirus)
Excerpt: as §1, §5

[10] = molecular target: T10, Gβ1γ2 His311Ala (Rattus norvegicus, UniProt P54311, H311A); assay: Phage ELISA, b-βγ mutant His311Ala; format: binding; settings: Gβ1γ2 His311Ala; phage displaying SIGK peptide
T10 construct: made in house; host or cells: Sf9 insect cells (baculovirus)
Excerpt: as §1, §2, §3, §4

[11] = molecular target: T11, Gβ1γ2 Arg314Ala (Rattus norvegicus, UniProt P54311, R314A); assay: Phage ELISA, b-βγ mutant Arg314Ala; format: binding; settings: Gβ1γ2 Arg314Ala; phage displaying SIGK peptide
T11 construct: made in house; host or cells: Sf9 insect cells (baculovirus)
Excerpt: as §1, §2, §3, §4

[12] = molecular target: T12, Gβ1γ2 Trp332Ala (Rattus norvegicus, UniProt P54311, W332A); assay: Phage ELISA, b-βγ mutant Trp332Ala; format: binding; settings: Gβ1γ2 Trp332Ala; phage displaying SIGK peptide
T12 construct: made in house; host or cells: Sf9 insect cells (baculovirus)
Excerpt: as §1, §2, §3, §4

[13] = molecular target: T13, wild-type b-Gβ1γ2 (Fαi1 binding) (Rattus norvegicus, UniProt P54311); assay: Flow cytometry competition for FITC-Gαi1 binding to immobilized wild-type b-βγ; settings: Log [SIGK] M −7
T13 construct: made in house; host or cells: Sf9 insect cells (baculovirus) for b-βγ
Excerpt: as §1, with “BAP.” for “BAP. Using this approach, 1-2 mg protein of purified protein can be obtained per liter of Sf9 insect cells. As 45 ng of protein is used in the phage ELISA assay, a single purification is sufficient for 10,000 to 30,000 binding assays.”
(§6) Blocking of Gαi•Gβ1γ2 binding was assessed by simultaneously adding 200 pM FITC-Gαi with or without SICK to 50 pM immobilized b-βγ and measuring the amount of FITC-Gαi bound to the beads by flow cytometry according to standard methods (Ghosh, et al. (2003) supra; Sarvazyan, et al. (1998) J. Biol. Chem. 273:7934-40).
(§7) Fluorescein-labeled Gαi1 (Fαi1) was prepared in accordance with standard methods (Sarvazyan, et al. (1998) supra). Assays were used to determine peptide effects on Gα-Gβγ interactions included competition and dissociation assays (Ghosh, et al. (2003) supra). […] The bead-associated fluorescence was then recorded in a BD Biosciences FACSCALIBUR™ flow cytometer. Data was corrected for background fluorescence and fit with a sigmoid dose response curve using Graph Pad Prism 4. […]

[14] = molecular target: T14, b-βγ Trp332Ala (Fαi1 binding) (Rattus norvegicus, UniProt P54311, W332A); assay: Flow cytometry competition for FITC-Gαi1 binding, b-βγ Trp332Ala; settings: Log [SIGK] M −7
T14 construct: made in house; host or cells: Sf9 insect cells (baculovirus)
Excerpt: as §1, with “BAP.” for “BAP. Using this approach, 1-2 mg protein of purified protein can be obtained per liter of Sf9 insect cells. As 45 ng of protein is used in the phage ELISA assay, a single purification is sufficient for 10,000 to 30,000 binding assays.”
as §6, §7

[15] = molecular target: T15, b-βγ Arg314Ala (Fαi1 binding) (Rattus norvegicus, UniProt P54311, R314A); assay: Flow cytometry competition for FITC-Gαi1 binding, b-βγ Arg314Ala; settings: Log [SIGK] M −7
T15 construct: made in house; host or cells: Sf9 insect cells (baculovirus)
Excerpt: as §1, with “BAP.” for “BAP. Using this approach, 1-2 mg protein of purified protein can be obtained per liter of Sf9 insect cells. As 45 ng of protein is used in the phage ELISA assay, a single purification is sufficient for 10,000 to 30,000 binding assays.”
as §6, §7

## CC[C@H](C)[C@H](NC(=O)[C@H](CCCCN)NC(=O)[C@H](Cc1ccccc1)NC(=O)[C@H](C)NC(=O)[C@H](CCCCN)NC(=O)CNC(=O)[C@@H](NC(=O)[C@@H](N)CO)[C@@H](C)CC)C(=O)N[C@@H](CC(C)C)C(=O)NCC(=O)N[C@@H](Cc1ccc(O)cc1)C(=O)N1CCC[C@H]1C(=O)N[C@@H](CC(=O)O)C(=O)N[C@@H](Cc1ccc(O)cc1)C(=O)N[C@@H](CC(=O)O)C(=O)O [SIGK]
[1]
  % of Wild-Type Signal (mean ± SD): 18.6 ± 4.6%
[2]
  % of Wild-Type Signal (mean ± SD): 111.2 ± 11.3%
[3]; Gβ1γ2 Trp99Ala, phage displaying SIGK peptide
  % of Wild-Type Signal (mean ± SD): 66.0 ± 7.7%
[3]; Trp99 mutation of Gβ1
  decrease in affinity: 4 fold
[4]
  % of Wild-Type Signal (mean ± SD): 32.2 ± 15.5%
[5]
  % of Wild-Type Signal (mean ± SD): 2.1 ± 2.4%
[6]
  % of Wild-Type Signal (mean ± SD): 0.8 ± 0.9%
[7]
  % of Wild-Type Signal (mean ± SD): 2.5 ± 3.7%
[8]
  % of Wild-Type Signal (mean ± SD): 66.5 ± 7.5%
[9]
  % of Wild-Type Signal (mean ± SD): 109.1 ± 21.4%
[10]
  % of Wild-Type Signal (mean ± SD): 94.3 ± 18.9%
[11]
  % of Wild-Type Signal (mean ± SD): 50.2 ± 5.0%
[12]
  % of Wild-Type Signal (mean ± SD): 7.1 ± 3.7%
[13]
  % Maximal Fα Binding (± SD): 100.0 ± 0.0%
[14]
  % Maximal Fα Binding (± SD): 100.0 ± 0.0%
[15]
  % Maximal Fα Binding (± SD): 100.0 ± 0.0%
